Data reported in patent US10865191B2, “Heterocyclic compounds useful as modulators of TNF alpha” (BRISTOL-MYERS SQUIBB COMPANY, priority 2015, dated 2020).
Like-named read-outs stand apart in the source and are kept apart here.

Molecular target: TNFα (Homo sapiens, UniProt P01375)
Assay: TNF induced HEK-Blue assay (NF-kB-driven secreted alkaline phosphatase reporter)
Format: cell-based
Conditions: TNFα 0.5 ng/mL, HEK-Blue-CD40L cells, 18 h
In short: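 HEK-Blue-CD40L cells (NF-kB-driven SEAP reporter), 20,000/well, added after 30 min pre-incubation of compound (0.004–25 μM final) with TNFα 0.5 ng/mL final at 37 °C; 18 h incubation. SEAP read with QUANTI-Blue at 620 nm; IC50 from 4-parameter logistic fit, normalized to unstimulated and stimulated DMSO controls.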

[1] = TNF induced HEK-Blue assay IC50 value
[2] = read-out: TNF induced HEK-Blue assay IC50 value

Sequence of TNFα (P01375 77-233 limits assumed): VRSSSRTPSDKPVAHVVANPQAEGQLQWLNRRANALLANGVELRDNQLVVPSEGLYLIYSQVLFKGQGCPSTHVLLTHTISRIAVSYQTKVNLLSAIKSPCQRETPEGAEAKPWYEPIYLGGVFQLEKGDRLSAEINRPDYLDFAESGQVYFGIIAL

SMILES	IC50 [1] [nM]	IC50 [2] [nM]
C[C@@H](Nc1c(Cl)cnc2ccc(-c3cnc(N4CCN(CC(N)=O)CC4)nc3)cc12)c1ccccc1F [Example 90, (R)-2-(4-(5-(3-chloro-4-((1-(2-fluorophenyl)ethyl)amino)quinolin-6-yl)pyrimidin-2-yl)piperazin-1-yl)acetamide]	< 1000	–
C[C@@H](Nc1c(Cl)cnc2ccc(-c3cnc(N4CCN(CC(=O)NS(C)(=O)=O)CC4)nc3)cc12)c1ccccc1F [Example 91, (R)-2-(4-(5-(3-chloro-4-((1-(2-fluorophenyl)ethyl)amino)quinolin-6-yl)pyrimidin-2-yl)piperazin-1-yl)-N-(methylsulfonyl)acetamide]	–	< 1000
O=C(O)CN1CCN(c2ncc(-c3ccc4ncc(Cl)c(N[C@@H](c5ccccc5F)C(F)F)c4c3)cn2)CC1 [Example 92, (S)-2-(4-(5-(3-chloro-4-((2,2-difluoro-1-(2-fluorophenyl)ethyl)amino)quinolin-6-yl)pyrimidin-2-yl)piperazin-1-yl)acetic acid]	–	< 1000
C[C@@H](Nc1c(Cl)cnc2ccc(-c3cnc(N4CCN([C@@H](CNC(=O)OC(C)(C)C)C(=O)O)CC4)nc3)cc12)c1ccccc1F [Example 93, (S)-3-((tert-butoxycarbonyl)amino)-2-(4-(5-(3-chloro-4-(((R)-1-(2-fluorophenyl)ethyl)amino)quinolin-6-yl)pyrimidin-2-yl)piperazin-1-yl)propanoic acid]	–	1000 to 10000
C[C@@H](Nc1c(Cl)cnc2ccc(-c3cnc(N4CCN([C@@H](CN)C(=O)O)CC4)nc3)cc12)c1ccccc1F [Example 94, (S)-3-amino-2-(4-(5-(3-chloro-4-(((R)-1-(2-fluorophenyl)ethyl)amino)quinolin-6-yl)pyrimidin-2-yl)piperazin-1-yl)propanoic acid]	–	< 1000
CC(=O)NC[C@@H](C(=O)O)N1CCN(c2ncc(-c3ccc4ncc(Cl)c(N[C@H](C)c5ccccc5F)c4c3)cn2)CC1 [Example 95, (S)-3-acetamido-2-(4-(5-(3-chloro-4-(((R)-1-(2-fluorophenyl)ethyl)amino)quinolin-6-yl)pyrimidin-2-yl)piperazin-1-yl)propanoic acid]	–	1000 to 10000
COC(=O)[C@H](CN)N1CCN(c2ncc(-c3ccc4ncc(Cl)c(N[C@H](C)c5ccccc5F)c4c3)cn2)CC1 [Example 99, methyl (S)-3-amino-2-(4-(5-(3-chloro-4-(((R)-1-(2-fluorophenyl)ethyl)amino)quinolin-6-yl)pyrimidin-2-yl)piperazin-1-yl) propanoate]	–	1000 to 10000
C[C@@H](Nc1c(Cl)cnc2ccc(-c3ccc(C(N)CO)cc3)cc12)c1ccccc1F (stereo partly drawn) [Example 100, 2-amino-2-(4-(3-chloro-4-(((R)-1-(2-fluorophenyl)ethyl)amino)quinolin-6-yl)phenyl)ethan-1-ol]	–	1000 to 10000
C[C@@H](Nc1c(Cl)cnc2ccc(-c3ccc(C(=O)NCCCCN)nc3)cc12)c1ccccc1F [Example 101, (R)—N-(4-aminobutyl)-5-(3-chloro-4-((1-(2-fluorophenyl)ethyl)amino)quinolin-6-yl)picolinamide]	–	10000 to 25000
C[C@@H](Nc1c(Cl)cnc2ccc(-c3ccc(C4(N)CC4)cc3)cc12)c1ccccc1F [Example 102, (R)-6-(4-(1-aminocyclopropyl)phenyl)-3-chloro-N-(1-(2-fluorophenyl)ethyl)quinolin-4-amine]	–	< 1000
C[C@H](Nc1c(Cl)cnc2ccc(-c3cnc(C(C)(C)O)nc3)cc12)[C@H]1CCCN(C(N)=O)C1 [Example 103, (S)-3-((S)-1-((3-chloro-6-(2-(2-hydroxypropan-2-yl)pyrimidin-5-yl)quinolin-4-yl)amino)ethyl)piperidine-1-carboxamide]	–	1000 to 10000
CCN1CCC[C@H]([C@H](C)Nc2c(Cl)cnc3ccc(-c4cnc(C(C)(C)O)nc4)cc23)C1 [Example 105, 2-(5-(3-chloro-4-(((S)-1-((S)-1-ethylpiperidin-3-yl)ethyl)amino)quinolin-6-yl)pyrimidin-2-yl)propan-2-ol]	–	< 1000
CC(Nc1c(Cl)cnc2ccc(-c3cnc(C(C)(C)O)nc3)cc12)[C@H]1CCCN(CC(O)CO)C1 (stereo partly drawn) [Example 106, 3-((S)-3-((S)-1-((3-chloro-6-(2-(2-hydroxypropan-2-yl)pyrimidin-5-yl)quinolin-4-yl)amino)ethyl)piperidin-1-yl)propane-1,2-diol]	–	1000 to 10000
CC(=O)N1CCC[C@H]([C@H](C)Nc2c(Cl)cnc3ccc(-c4cnc(C(C)(C)O)nc4)cc23)C1 [Example 107, 1-((S)-3-((S)-1-((3-chloro-6-(2-(2-hydroxypropan-2-yl)pyrimidin-5-yl)quinolin-4-yl)amino)ethyl)piperidin-1-yl)ethanone]	< 1000	–
COC(=O)[C@H](CNC(C)=O)N1CCN(c2ncc(-c3ccc4ncc(Cl)c(N[C@H](C)c5ccccc5F)c4c3)cn2)CC1 [Example 109, methyl (S)-3-acetamido-2-(4-(5-(3-chloro-4-(((R)-1-(2-fluorophenyl)ethyl)amino)quinolin-6-yl)pyrimidin-2-yl)piperazin-1-yl)propanoate]	–	1000 to 10000
CC(=O)NCc1ccc(-c2ccc3ncc(Cl)c(N[C@H](C)c4ccccc4F)c3c2)cc1 [Example 110, (R)—N-(4-(3-chloro-4-((1-(2-fluorophenyl)ethyl)amino)quinolin-6-yl)benzyl)acetamide]	–	< 1000

SMILES	IC50 [1] [nM]	IC50 [2] [nM]
C[C@@H](Nc1c(Cl)cnc2ccc(-c3ccc(C4(NS(C)(=O)=O)CCC4)cc3)cc12)c1ccccc1F [Example 111, (R)—N-(1-(4-(3-chloro-4-((1-(2-fluorophenyl)ethyl)amino)quinolin-6-yl)phenyl)cyclobutyl)methanesulfonamide]	–	10000 to 25000
CC(=O)NC1(c2ccc(-c3ccc4ncc(Cl)c(N[C@H](C)c5ccccc5F)c4c3)cc2)CCC1 [Example 113, (R)—N-(1-(4-(3-chloro-4-((1-(2-fluorophenyl)ethyl)amino)quinolin-6-yl)phenyl)cyclobutyl)acetamide]	–	10000 to 25000
C[C@@H](Nc1c(Cl)cnc2ccc(-c3cnc(C4(O)CCC(=O)CC4)nc3)cc12)c1ccccc1F [Example 114, (R)-4-(5-(3-chloro-4-((1-(2-fluorophenyl)ethyl)amino)quinolin-6-yl)pyrimidin-2-yl)-4-hydroxycyclohexanone]	–	< 1000
C[C@@H](Nc1c(Cl)cnc2ccc(-c3ccc(C(O)(CF)CF)cc3)cc12)c1ccccc1F [Example 117, (R)-2-(4-(3-chloro-4-((1-(2-fluorophenyl)ethyl)amino)quinolin-6-yl)phenyl)-1,3-difluoropropan-2-ol]	–	< 1000
C[C@@H](Nc1c(Cl)cnc2ccc(-c3ccc(C4(N)CCC4)cc3)cc12)c1ccccc1F [Example 118, (R)-6-(4-(1-aminocyclobutyl)phenyl)-3-chloro-N-(1-(2-fluorophenyl)ethyl)quinolin-4-amine]	–	< 1000
C[C@@H](Nc1c(Cl)cnc2ccc(-c3cnc(C4(O)CCCC4)nc3)cc12)c1ccccc1F [Example 120, (R)-1-(5-(3-chloro-4-((1-(2-fluorophenyl)ethyl)amino)quinolin-6-yl)pyrimidin-2-yl)cyclopentan-1-ol]	–	< 1000
C[C@@H](Nc1c(Cl)cnc2ccc(-c3cnc([C@]4(O)CCC[C@H]4O)nc3)cc12)c1ccccc1F [Example 121, (1R,2R)-1-(5-(3-chloro-4-(((R)-1-(2-fluorophenyl)ethyl)amino)quinolin-6-yl)pyrimidin-2-yl)cyclopentane-1,2-diol]	–	< 1000
C=CC(=O)N1CCN(c2ccc(-c3ccc4ncc(Cl)c(N[C@H](C)c5ccccc5F)c4c3)cn2)CC1 [Example 123, (R)-1-(4-(5-(3-chloro-4-((1-(2-fluorophenyl)ethyl)amino)quinolin-6-yl)pyridin-2-yl)piperazin-1-yl)prop-2-en-1-one]	–	< 1000
C=CC(=O)N(C)c1ncc(-c2ccc3ncc(Cl)c(N[C@H](C)c4ccccc4F)c3c2)cn1 [Example 124, (R)—N-(5-(3-chloro-4-((1-(2-fluorophenyl)ethyl)amino)quinolin-6-yl)pyrimidin-2-yl)-N-methylacrylamide]	–	< 1000
CC#CC(=O)N1CCN(c2ccc(-c3ccc4ncc(Cl)c(N[C@H](C)c5ccccc5F)c4c3)cn2)CC1 [Example 125, (R)-1-(4-(5-(3-chloro-4-((1-(2-fluorophenyl)ethyl)amino)quinolin-6-yl)pyridin-2-yl)piperazin-1-yl)but-2-yn-1-one]	–	< 1000
CCC(Nc1c(Cl)cnc2ccc(-c3cnc(C(C)(C)O)nc3)cc12)c1nc(C(O)CO)ccc1F (stereo not shown) [Example 127, 1-(6-(1-((3-chloro-6-(2-(2-hydroxypropan-2-yl)pyrimidin-5-yl)quinolin-4-yl)amino)propyl)-5-fluoropyridin-2-yl)ethane-1,2-diol]	–	< 1000
CCC(Nc1c(Cl)cnc2ccc(-c3cnc(C(C)(C)O)nc3)cc12)c1nc(C(=O)O)ccc1F (stereo not shown) [Example 128, 6-(1-((3-chloro-6-(2-(2-hydroxypropan-2-yl)pyrimidin-5-yl)quinolin-4-yl)amino)propyl)-5-fluoropicolinic acid]	–	1000 to 10000
CCC(Nc1c(Cl)cnc2ccc(-c3cnc(C(C)(C)O)nc3)cc12)c1nc(C(N)=O)ccc1F (stereo not shown) [Example 129, 6-(1-((3-chloro-6-(2-(2-hydroxypropan-2-yl)pyrimidin-5-yl)quinolin-4-yl)amino)propyl)-5-fluoropicolinamide]	–	< 1000
CCC(Nc1c(Cl)cnc2ccc(-c3cnc(C(C)(C)O)nc3)cc12)c1nc(CO)ccc1F (stereo not shown) [Example 130, 2-(5-(3-chloro-4-((1-(3-fluoro-6-(hydroxymethyl)pyridin-2-yl)propyl)amino)quinolin-6-yl)pyrimidin-2-yl)propan-2-ol]	–	< 1000
CC(=O)NC1CCC(O)(c2ncc(-c3ccc4ncc(Cl)c(N[C@H](C)c5ccccc5F)c4c3)cn2)CC1 (stereo partly drawn) [Example 131, (R)—N-(4-(5-(3-chloro-4-((1-(2-fluorophenyl)ethyl)amino)quinolin-6-yl)pyrimidin-2-yl)-4-hydroxycyclohexyl)acetamide]	–	1000 to 10000
